Data on 25 compounds can be found in patent US20070219186A1, “Pyrazolo[1,5-A]pyrimidine derivatives and methods of use thereof” (priority 2006, published 2007).

The experiment concerns the target T1, human B-Raf (Homo sapiens, UniProt P15056).
T1 construct: Flag; GST; made in house; host or cells: Sf9 insect cells (B-Raf); E. coli (MEK1-GST)
Description: B-Raf Kinase to MEK1 ELISA. Type of experiment: biochemical. To be noted: for inhibition at 10 µM: read-out: % Inhib./10 uM. An excerpt: TITLE: B-Raf Kinase to MEK1 ELISA
PURPOSE: To discover B-Raf Kinase inhibitors that can inhibit growth of tumor cells which contain oncogenic forms of Receptor Tyrosine Kinases or K-Ras, or B-Raf kinase.
Reagents: Flag/GST-tagged recombinant human B-Raf produced in Sf9 insect cells, human non-active Mek-1-GST (recombinant protein produced in E. coli); and a phospho-MEK1 specific poly-clonal Ab from Cell Signaling Technology (cat. #9121).
B-Raf1 Kinase Assay Procedure:
B-Raf-1 is used to phosphorylate GST-MEK1. MEK1 phosphorylation is measured by a phospho-specific antibody (from Cell Signaling Technology, cat. #9121) that detects phosphorylation of two serine residues at positions 217 and 221 on MEK1.
B-Raf Assay Stock Solutions:
1. Assay Dilution Buffer (ADB): 20 mM MOPS, pH 7.2, 25 mM β-glycerol phosphate, 5 mM EGTA, 1 mM sodium orthovanadate, 1 mM dithiothreitol.
2. Magnesium/ATP Cocktail: 200 μM cold ATP and 40 mM magnesium chloride in ADB.
3. Active Kinase: Active B-Raf: used at ˜20 ng per assay point.
4. Non-active GST-MEK1: Use at 100 nM (50 nM final).
6. Anti-GST Ab (Pharmacia)
7. Anti-rabbit Ab/Europium conjugate (Wallac)
1. Add 25 μl of ADB containing B-Raf and Mek per assay (i.e. per well of a 96 well plate)
2. Add 25 μl of 0.2 mM ATP and 40 mM magnesium chloride in ADB.
3. Incubate for 60 minutes at RT in a shaking incubator.
4. Transfer this mixture to an anti-GST Ab coated 96 well plate (Nunc Immunosorb plates coated o/n with a-GST.
5. Incubate for 60 minutes at 30° C. in a shaking incubator
6. Wash 3× with TBST, add Anti-Phospho MEK1 (1:1000)
7. Incubate for 60 minutes at 30° C. in a shaking incubator
8. Wash 3× with TBST, add Anti-rabbit Ab/Europium conjugate (Wallac) (1:500)
9. Incubate for 60 minutes at 30° C. in a shaking incubator
10. Add 100 ul of Wallac Delfia Enhancement Solution and shake for 10 minutes.
11. Read plates in Wallac Victor model Plate Reader.
12. Collect data analyze in Excel for single point and IC50 determinations.
Typically Raf-1 assay is run at cpd concentrations from 10 μM to 30 nM in half log dilutions. (% inhibition is determined for each cpd concentration)

Setting [1] is: median, cpd concentrations from 10 μM to 30 nM in half log dilutions, read-out: Median IC50.

Read-outs that look alike come from different tables or passages of the source.

T1 sequence (P15056 whole entry): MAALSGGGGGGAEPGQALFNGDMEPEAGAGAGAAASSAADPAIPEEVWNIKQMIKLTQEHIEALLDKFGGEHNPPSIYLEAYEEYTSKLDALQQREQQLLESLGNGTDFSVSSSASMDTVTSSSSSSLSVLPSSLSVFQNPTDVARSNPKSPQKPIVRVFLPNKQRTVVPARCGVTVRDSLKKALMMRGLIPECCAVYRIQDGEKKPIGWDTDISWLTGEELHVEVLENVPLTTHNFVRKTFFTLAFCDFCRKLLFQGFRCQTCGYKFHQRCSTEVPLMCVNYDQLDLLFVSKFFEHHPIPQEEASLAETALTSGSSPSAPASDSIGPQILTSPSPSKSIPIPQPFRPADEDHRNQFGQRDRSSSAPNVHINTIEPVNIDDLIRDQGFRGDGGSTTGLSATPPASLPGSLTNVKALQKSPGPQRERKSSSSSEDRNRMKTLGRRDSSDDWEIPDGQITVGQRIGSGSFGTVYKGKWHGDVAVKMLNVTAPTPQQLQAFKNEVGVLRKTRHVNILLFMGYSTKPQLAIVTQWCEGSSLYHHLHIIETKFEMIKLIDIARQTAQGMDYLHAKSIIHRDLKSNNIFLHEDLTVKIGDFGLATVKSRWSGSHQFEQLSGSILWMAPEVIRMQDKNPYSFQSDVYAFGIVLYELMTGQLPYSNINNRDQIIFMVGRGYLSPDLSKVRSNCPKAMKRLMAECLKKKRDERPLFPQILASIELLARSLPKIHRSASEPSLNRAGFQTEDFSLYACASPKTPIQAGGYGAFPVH

Broadly, the IC50 is the concentration that gives 50% inhibition. As for `CCOC(=O)c1cnn2c(-c3ccc(F)c(NC(=O)c4cccc(C(F)(F)F)c4)c3)ccnc12` [Example 89, ethyl 7-(4-fluoro-3-{[3-(trifluoromethyl)benzoyl]amino}phenyl)pyrazolo[1,5-a]pyrimidine-3-carboxylate], the inhibition at 10 µM amounted to 65%. Further, the IC50 under setting [1] came to 2170 nM.
In the same order, the values of `O=C(Nc1cccc(-c2ccnc3c(-c4cccc(C(F)(F)F)c4)cnn23)c1)c1cccc(C(F)(F)F)c1` [Example 291, 3-(trifluoromethyl)-N-(3-{3-[3-(trifluoromethyl)phenyl]pyrazolo[1,5-a]pyrimidin-7-yl}phenyl)benzamide] are 33% and over 10000 nM.
In the case of `CN(C)c1ccc(-c2cnn3c(-c4cccc(NC(=O)c5cccc(C(F)(F)F)c5)c4)ccnc23)cc1` [Example 157, N-(3-{3-[4-(dimethylamino)phenyl]pyrazolo[1,5-a]pyrimidin-7-yl}phenyl)-3-(trifluoromethyl)benzamide], the IC50 was 300 nM and the inhibition at 10 µM was found to be 66%.
Regarding `CNC(=O)c1cnn2c(-c3cccc(NC(=O)c4cccc(C(F)(F)F)c4)c3)ccnc12` [Example 31, N-methyl-7-(3-{[3-(trifluoromethyl)benzoyl]amino}phenyl)-pyrazolo[1,5-a]pyrimidine-3-carboxamide], the inhibition at 10 µM is 48%. Also, the IC50 under setting [1] was over 10000 nM.
As for `CC(O)c1cccc(-c2cnn3c(-c4cccc(NC(=O)c5cccc(C(F)(F)F)c5)c4)ccnc23)c1` (centres unmarked) [Example 304, N-(3-{3-[3-(1-hydroxyethyl)phenyl]pyrazolo[1,5-a]pyrimidin-7-yl}phenyl)-3-(trifluoromethyl)benzamide], the inhibition at 10 µM was determined as 80%. Also, the IC50 under setting [1] is 195 nM.
For `NC(=O)c1cnn2c(-c3cccc(NC(=O)c4cccc(C(F)(F)F)c4)c3)ccnc12` [Example 61, 7-(3-{[3-(trifluoromethyl)benzoyl]amino}phenyl)pyrazolo[1,5-a]pyrimidine-3-carboxamide], the inhibition at 10 µM is 16%. The half-inhibitory concentration (IC50) under setting [1] was over 10000 nM.
As for `O=C(Nc1cccc(-c2ccnc3cc(-c4ccccn4)nn23)c1)c1cccc(C(F)(F)F)c1` [Example 111, N-[3-(2-pyridin-2-ylpyrazolo[1,5-a]pyrimidin-7-yl)phenyl]-3-(trifluoromethyl)benzamide], the inhibition at 10 µM came to 24%. The IC50 under setting [1] is over 3000 nM.
`Cc1ccccc1-c1cnn2c(-c3cccc(NC(=O)c4cccc(C(F)(F)F)c4)c3)ccnc12` [Example 305, N-{3-[3-(2-methylphenyl)pyrazolo[1,5-a]pyrimidin-7-yl]phenyl}-3-(trifluoromethyl)benzamide]: the IC50 was 893 nM and the inhibition at 10 µM worked out at 54%.
`O=C(Nc1cccc(-c2ccnc3c(-c4ccc(CN5CCCC5)o4)cnn23)c1)c1cccc(C(F)(F)F)c1` [Example 316, N-(3-{3-[5-(pyrrolidin-1-ylmethyl)-2-furyl]pyrazolo[1,5-a]pyrimidin-7-yl}phenyl)-3-(trifluoromethyl)benzamide]: the inhibition at 10 µM worked out at 92%. Also, the IC50 under setting [1] was determined as 541 nM.
Take `CCOC(=O)c1cnn2c(-c3cccc(NC(=O)c4cccc(C#N)c4)c3)ccnc12` [Example 13, ethyl 7-{3-[(3-cyanobenzoyl)amino]phenyl}pyrazolo[1,5-a]pyrimidine-3-carboxylate]: the inhibition at 10 µM was 27%. Also, the IC50 under setting [1] was over 20000 nM.
Regarding `O=C(Nc1cccc(-c2ccnc3c(-c4ccccc4C(F)(F)F)cnn23)c1)c1cccc(C(F)(F)F)c1` [Example 290, 3-(trifluoromethyl)-N-(3-{3-[2-(trifluoromethyl)phenyl]pyrazolo[1,5-a]pyrimidin-7-yl}phenyl)benzamide], it took 367 nM to reach half-maximal inhibition (IC50) and the inhibition at 10 µM was 67%.
Consider `COCCOC(=O)c1cnn2c(-c3cccc(NC(=O)c4cccc(C(F)(F)F)c4)c3)ccnc12` [Example 128, 2-methoxyethyl 7-(3-{[3-(trifluoromethyl)benzoyl]amino}phenyl)pyrazolo[1,5-a]pyrimidine-3-carboxylate], for which the inhibition at 10 µM worked out at 68%. Further, under setting [1], the IC50 stood at 116 nM.
Take `CCOC(=O)c1cnn2c(-c3cccc(NC(=O)c4cc(F)cc(C(F)(F)F)c4)c3)ccnc12` [Example 75, ethyl 7-(3-{[3-fluoro-5-(trifluoromethyl)benzoyl]amino}phenyl)pyrazolo[1,5-a]pyrimidine-3-carboxylate]: the inhibition at 10 µM came out at 58%. Also, the IC50 under setting [1] is 6600 nM.
In the case of `CCOC(=O)c1cnn2c(-c3cccc(NC(=O)Cc4cc(C(F)(F)F)cc(C(F)(F)F)c4)c3)ccnc12` [Example 99, ethyl 7-[3-({[3,5-bis(trifluoromethyl)phenyl]acetyl}amino)phenyl]pyrazolo[1,5-a]pyrimidine-3-carboxylate], the inhibition at 10 µM worked out at 13%. For the same compound, under setting [1], the IC50 was over 10000 nM.
Turning to “N-{3-[3-(4-methoxyphenyl)pyrazolo[1,5-a]pyrimidin-7-yl]phenyl}-3-(trifluoromethyl)benzamide [Example 159]”, under setting [1], the IC50 is over 10000 nM. Also, the “% Inhib./10 uM” value (single point assay, 10 uM) was 5%.
For `COc1ccc(C(=O)Nc2cccc(-c3ccnc4cc(-c5ccncc5)nn34)c2)cc1C(F)(F)F` [Example 130, 4-methoxy-N-[3-(2-pyridin-4-ylpyrazolo[1,5-a]pyrimidin-7-yl)phenyl]-3-(trifluoromethyl)benzamide], the inhibition at 10 µM turned out to be 91%. Also, the IC50 under setting [1] amounted to 70 nM.
For the compound `O=C(Nc1cccc(-c2ccnc3c(Br)cnn23)c1)Nc1cccc(C(F)(F)F)c1` [Example 166, N-[3-(3-bromopyrazolo[1,5-a]pyrimidin-7-yl)phenyl]-N′-[3-(trifluoromethyl)phenyl]urea], the inhibition at 10 µM was 94%. Further, the half-inhibitory concentration (IC50) under setting [1] was 1330 nM.
Take `Cc1ccc(C(=O)Nc2cccc(-c3ccnc4cc(-c5ccccc5)nn34)c2)cc1C(F)(F)F` [Example 119, 4-methyl-N-[3-(2-phenylpyrazolo[1,5-a]pyrimidin-7-yl)phenyl]-3-(trifluoromethyl)benzamide]: the inhibition at 10 µM was determined as 29%. Also, the IC50 under setting [1] was over 10000 nM.
As to `CCOC(=O)c1cnn2c(-c3cccc(NC(=O)Nc4ccc(C)c(C)c4)c3)ccnc12` [Example 42, ethyl 7-[3-({[(3,4-dimethylphenyl)amino]carbonyl}amino)phenyl]pyrazolo[1,5-a]pyrimidine-3-carboxylate], the inhibition at 10 µM was 70%. The IC50 under setting [1] worked out at 3530 nM.
The like results for `CCOC(=O)c1cnn2c(-c3cccc(NC(=O)c4cccc(C)c4)c3)ccnc12` [Example 242, ethyl 7-{3-[(3-methylbenzoyl)amino]phenyl}pyrazolo[1,5-a]pyrimidine-3-carboxylate] were, in that order, 20% and over 10000 nM.
For `CCOC(=O)c1cnn2c(-c3cccc(NC(=O)Nc4ccc(C)c(Cl)c4)c3)ccnc12` [Example 82, ethyl 7-[3-({[(3-chloro-4-methylphenyl)amino]carbonyl}amino)phenyl]pyrazolo[1,5-a]pyrimidine-3-carboxylate], the inhibition at 10 µM was 77%. The IC50 under setting [1] was 570 nM.
In the same order, the values of `O=C(Nc1cccc(-c2ccnc3cc(N4CCOCC4)nn23)c1)c1ccc(Cl)c(C(F)(F)F)c1` [Example 197, 4-chloro-N-[3-(2-morpholin-4-ylpyrazolo[1,5-a]pyrimidin-7-yl)phenyl]-3-(trifluoromethyl)benzamide] are 91% and 200 nM.
Take `CCOC(=O)c1cnn2c(-c3cc(NC(=O)c4cccc(C(F)(F)F)c4)ccc3[N+](=O)[O-])ccnc12` [Example 85, ethyl 7-(2-nitro-5-{[3-(trifluoromethyl)benzoyl]amino}phenyl)pyrazolo[1,5-a]pyrimidine-3-carboxylate]: the inhibition at 10 µM is 81%. For the same compound, the IC50 under setting [1] was found to be 410 nM.
As for `O=C(Nc1cccc(-c2ccnc3c(C#CCCCN4CCOCC4)cnn23)c1)c1cccc(C(F)(F)F)c1` [Example 282, N-{3-[3-(5-morpholin-4-ylpent-1-yn-1-yl)pyrazolo[1,5-a]pyrimidin-7-yl]phenyl}-3-(trifluoromethyl)benzamide], the IC50 stood at 551 nM and the inhibition at 10 µM stood at 79%.
Regarding `CCOC(=O)c1cnn2c(-c3cccc(NC(=O)Nc4ccc(Br)cc4)c3)ccnc12` [Example 41, ethyl 7-[3-({[(4-bromophenyl)amino]carbonyl}amino)phenyl]pyrazolo[1,5-a]pyrimidine-3-carboxylate], the inhibition at 10 µM was determined as 37%. For the same compound, the IC50 under setting [1] is over 10000 nM.
